# Positions of bridges follow the written chain, without caps; N, C: chain ends. Non-standard residues stand in square brackets, D forms with d. Residues, ends and D or L forms follow the SMILES beside them. S5 = C=CCCC[C@](C)(N)C(=O)O
# Tests used:
# [1] = Hydrophobicity by RP-HPLC retention time; assay type: physicochemical; settings: chromatographic, reverse-phase C18 column, CH3CN/H2O containing 0.1%TFA from 10% to 90% over 20 min, UV 220 nm
# From the text: To uncover the structure-activity relationship of KR-12 and its stapled derivatives, their physicochemical properties in terms of hydrophobicity, net charge and α-helicity were investigated (Table 2).
# [2] = α-helicity by circular dichroism; assay type: physicochemical; settings: CD, aqueous solution containing 50% trifluoroethanol, from [θ]222, 25 °C
# Method: cm2 ∙ dmol−1) after subtracting the background using the following equation:
# [θ]=(θ×1000)/( c ×l ×n ), among which, θ is the ellipticity recorded (mdeg), c is the concentration of peptide (M), l is the quartz cuvette’s optical path length (cm), and n is the amino acid number of the peptide. The helicity of peptides was calculated using the following equation: α = [θ]222/[θ]max ×100%, where [θ]222 is the mean residue ellipticity of the peptide at 222 nm; [ θ]max = (−44,000 +250T) (1−k/n), k = 4, n is the number of amino acids, T = 25 °C.
# Bacterial strains and culture
# Bacterial type stains ATCC 25923 S. aureus, ATCC 12228 S. epidermidis, ATCC […]
# aeruginosa and ATCC 13883 K. pneumoniae were obtained from Shanghai Bioresource Collection Center. The bacterial culture medium was purchased from Oxoid and autoclaved according to the instructions from manufacturer. […]
# The minimal inhibition concentration (MIC) of the linear and stapled peptides was determined using the microbroth dilution method from the Clinical and Laboratory Standards Institute (CLSI)[2, 3]. […]
# 10 μL AlamarBlue cell viability reagent (ThermoFisher Scientific, UK) was added to each well, then the plate was re -incubated for a further 2 hours at 37 °C. The MIC was recorded as the minimum concentration of peptides required to completely in hibit bacteria growth. […]
# Serum stability assay = assay type: in vitro ADME, human; settings: human serum, 2 mg/mL peptide in pH 7.4 PBS mixed with serum 1:4, 37 °C, up to 48 h, RP-HPLC UV 220 nm, 3 independent measurements
# From the text: Maintaining high stability and presenting high compatibility in the complex physiological environment are important criterions for the clinical translation of AMPs. […] The derivatives were mixed with human serum in pH 7.4 PBS, simulating the degradation process of peptides by proteases in vivo. The percentages of intact derivatives were monitored and determined with time according to the PR-HPLC. […]
# Serum stability of the linear and stapled peptides was examined by RP -HPLC as previously described. 2 mg/mL peptide solution was prepared in pH 7.4 PBS and incubated with human serum (Gemini, USA) to the final volume ratio of 1:4 at 37 °C.
# At various time intervals, 50 μL mixture was added to 50 μL ethanol to terminate the enzymatic hydrolysis. After centrifugation at 10,000 rpm for 10 minutes under 4 °C, […]
# the supernatant was collected and analyzed by RP-HPLC, with a UV detector monitored at 220 nm. Record the peak area of the intact peptide and calculate the percentage of remaining peptide based on the integrated area as, Peptide remaining (%) = peak area of remaining peptide/peak area of intact peptide×100%. […]
# NIH-3T3 cell = settings: CCK-8, 24 h incubation, nonlinear regression, 3 independent measurements
# Method: For development of the stapled KR-12 derivatives to treat bacterial infections in vivo, their cytotoxicity was examined via the CCK-8 assay, which could provide a quantitative assessment of cell viability based on the dehydrogenase activity. The mouse embryonic fibroblast NIH-3T3 cell was selected and incubated with various concentrations of KR-12 and its stapled derivatives.
# Mouse embryonic fibroblast cells NIH-3T3 and mouse monocyte macrophage leukemia cells RAW264.7 were obtained from Shanghai Institute of Biochemistry and Cell Biology, Chinese Academy of Sciences. These two cells were maintained in DMEM and RPMI-1640, respectively. Both media were supplemented with 10% FBS and 1% 100 U/mL penicillin-streptomycin solution. Cells were maintained at 37 °C in a 5% CO2 and humidified incubator. Replace the culture medium every day until the cell grows to confluence. Cells were then treated with 0.25% trypsin–EDTA and split using fresh medium for either passage or analysis.
# CCK-8 cell counting kit was utilized to examine the cytotoxicity of the linear and stapled peptides. NIH-3T3 cell was planked at a density of 1.5×10^4 cell/well in a 96 - well plate and incubated it for 24 hours at 37 °C. Cells were then treated with different concentrations of peptides in fresh DMEM and incubated for 24 hours before the addition of 10 μL CCK -8 and incubation for a further 1 hour. Measure the absorbance at 450nm using a microplate reader (BioTek, USA) and calculate the percentage of cell viability as: cell viability (%) = (Abspeptide-Absblank)/(Abscontrol-Absblank)×100%, where Abscontrol is the absorbance of cells treated with PBS and Abs blank is the absorbance of the cell-free medium. The data was fitted using the nonlinear regression within
smiles,measurement,setting,value
"CC[C@H](C)[C@H](NC(=O)[C@H](CCCNC(=N)N)NC(=O)[C@H](CCCCN)NC(C)=O)C(=O)N[C@H](C(=O)N[C@@H](CCC(N)=O)C(=O)N[C@@H](CCCNC(=N)N)C(=O)N[C@H](C(=O)N[C@@]1(C)CCCC=CCCC[C@@](C)(C(N)=O)NC(=O)[C@H](CC(C)C)NC(=O)[C@H](Cc2ccccc2)NC(=O)[C@H](CC(=O)O)NC1=O)[C@@H](C)CC)C(C)C [KR-12 (K8, R12)] (Ac-KRIVQRI[S5]DFL[S5]-NH2; staple 8-12)","TR (retention time, measure of hydrophobicity)",[1],18.2 min
same,α-helicity,[2],50.0 ± 0.6%
same,TD50 (time at which 50% of the peptide is degraded in the presence of serum),Serum stability assay,18.28 h
same,IC50 against NIH-3T3 cell,NIH-3T3 cell,52.8 µg/mL

# Reference: paper PMC10845205, “Discovery of novel antibacterial agent for the infected wound treatment: all-hydrocarbon stapling optimization of LL-37” (Theranostics, 2024)
